# US20250213707A1, “COMPOUND FOR INCREASING EFFICACY OF ONCOLYTIC VIRUSES” (ABLEVIA BIOTECH GMBH, priority 2022, published 2025)
# Legend:
# [1] = test system: polyclonal antibody ab6982; test: Epitope mapping of polyclonal antibody ab6982 against cyclic peptides of Ad5 fiber and hexon (peptide array); format: binding, rabbits
# Source text: Polyclonal antibody ab6982 (Abcam) was generated by immunizing rabbits with purified AdV. It reacts with all capsid proteins of Ad5 including hexon, fiber and penton. It was shown that the antibody neutralizes Ad5 infection in a bioassay at 1000 adenovirus 5 particles/ml, a 50% inactivation of the adenovirus can be achieved at a 1/25,000 dilution of the antibody. In order to identify epitopic regions that could contain peptides for ab6982 paratope binding, the antibody was mapped against the sequences of fiber (NCBI Reference Sequence: AP 000226.1) and hexon protein (GenBank: BAG48782.1). […] The binding signal of this antibody to the array yielded several peptides that were aligned and clustered against the sequence of the protein. The peptide clusters were named cluster1-7 (fiber protein) and clusters8-16 (hexon protein) according to their ranked order of cyclic peptide hits (i.e. cluster contains the strongest binders, cluster2 the second strongest etc.). Below are the aligments of the corresponding peptides that bind to polyclonal antibody ab6982.
# [2] = test system: IgG from human donors (anti-AAV antibodies); test: Screen for anti-AAV antibodies in human sera, 2452 linear 15-amino-acid AAV peptides on microarrays (Table 1); format: binding; set-up: key to group I: X: the deduplicated aggregate of the respective top 10 peptide hits for each donor was compiled and designated as group I; key to group II: X: the deduplicated aggregate of the respective top 25 peptide hits for each donor was compiled and designated as group II; key to group III: X: the deduplicated aggregate of the respective top 50 peptide hits for each donor was compiled and designated as group III; conditions: for group I: membership in deduplicated aggregate of top 10 peptide hits for each donor
# How it was run: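 Peptide hits were grouped I to IV by pooling each donor's top 10, 25, 50 or 250 background-corrected fluorescence signals, after deduplication. Signals came from donor IgG, purified on protein G, bound to arrayed 15-residue linear peptides (2452 total) spanning 16 AAV sequences.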
# [3] = cyclic peptides of hexon protein (clusters 8-16)
# [4] = cyclic peptides of fiber protein (clusters 1-7)
# [5] = X = peptide belongs to the deduplicated aggregate of the top 50 peptide hits for each donor, linear 15-amino-acid AAV peptides, IgG binding by fluorescence
# [6] = human donor IgG binding to linear 15-amino-acid AAV peptides on microarray, fluorescence
# [7] = membership in deduplicated aggregate of top 25 peptide hits for each donor, human donor IgG binding to linear 15-amino-acid AAV peptides on microarray, fluorescence
# [8] = membership in deduplicated aggregate of top 50 peptide hits for each donor, human donor IgG binding to linear 15-amino-acid AAV peptides on microarray, fluorescence
# [9] = X = peptide belongs to the deduplicated aggregate of the top 25 peptide hits for each donor, linear 15-amino-acid AAV peptides, IgG binding by fluorescence
substance,measurement,setting,value
268 (IETPDTH) [compound 268],antibody binding signal ranking from the microarray experiment,[1]; [3],045
247 (DDDNEDE) [compound 247],antibody binding signal ranking from the microarray experiment,[1]; [3],096
265 (LYSEDVDIET) [compound 265],antibody binding signal ranking from the microarray experiment,[1]; [3],039
292 (SYKDRMYSFF) [compound 292],antibody binding signal ranking from the microarray experiment,[1]; [3],120
215 (LEINLEEEDD) [compound 215],antibody binding signal ranking from the microarray experiment,[1]; [3],08
280 (YSEDVDIETPDTH) [compound 280],antibody binding signal ranking from the microarray experiment,[1]; [3],059
180 (SFLDPEYWNF) [compound 180],antibody binding signal ranking from the microarray experiment,[1]; [4],018
194 (FATSSYTFSY) [compound 194],antibody binding signal ranking from the microarray experiment,[1]; [4],043
184 (FLDPEYW) [compound 184],antibody binding signal ranking from the microarray experiment,[1]; [4],050
183 (NNSFLDPEYWNFR) [compound 183],antibody binding signal ranking from the microarray experiment,[1]; [4],034
290 (YSFFRNF) [compound 290],antibody binding signal ranking from the microarray experiment,[1]; [3],104
187 (VLLNNSFLDPEYW) [compound 187],antibody binding signal ranking from the microarray experiment,[1]; [4],088
260 (ALEINLE) [compound 260],antibody binding signal ranking from the microarray experiment,[1]; [3],033
219 (AATALEINLEEED) [compound 219],antibody binding signal ranking from the microarray experiment,[1]; [3],14
270 (VLYSEDVDIE) [compound 270],antibody binding signal ranking from the microarray experiment,[1]; [3],047
208 (ALEINLEEEDDDN) [compound 208],antibody binding signal ranking from the microarray experiment,[1]; [3],01
236 (NLEEEDDDNEDEV) [compound 236],antibody binding signal ranking from the microarray experiment,[1]; [3],029
177 (FSWDWSG) [compound 177],antibody binding signal ranking from the microarray experiment,[1]; [4],186
310 (NIGYQGF) [compound 310],antibody binding signal ranking from the microarray experiment,[1]; [3],187
296 (PESYKDRMYSFFR) [compound 296],antibody binding signal ranking from the microarray experiment,[1]; [3],153
202 (IFATSSY) [compound 202],antibody binding signal ranking from the microarray experiment,[1]; [4],104
207 (EIFATSSYTFSYI) [compound 207],antibody binding signal ranking from the microarray experiment,[1]; [4],200
224 (DEVDEQA) [compound 224],antibody binding signal ranking from the microarray experiment,[1]; [3],10
271 (DVDIETPDTHISY) [compound 271],antibody binding signal ranking from the microarray experiment,[1]; [3],048
250 (EDDDNEDEVD) [compound 250],antibody binding signal ranking from the microarray experiment,[1]; [3],121
259 (VDEQAEQQKTHVF) [compound 259],antibody binding signal ranking from the microarray experiment,[1]; [3],041
230 (EDEVDEQAEQQKT) [compound 230],antibody binding signal ranking from the microarray experiment,[1]; [3],21
283 (DIETPDT) [compound 283],antibody binding signal ranking from the microarray experiment,[1]; [3],062
204 (NYINEIFATSSYT) [compound 204],antibody binding signal ranking from the microarray experiment,[1]; [4],119
256 (DNEDEVDEQAEQQ) [compound 256],antibody binding signal ranking from the microarray experiment,[1]; [3],031
279 (IETPDTHISY) [compound 279],antibody binding signal ranking from the microarray experiment,[1]; [3],058
240 (DDDNEDEVDEQAE) [compound 240],antibody binding signal ranking from the microarray experiment,[1]; [3],037
196 (SYTFSYI) [compound 196],antibody binding signal ranking from the microarray experiment,[1]; [4],064
299 (GDRTRYF) [compound 299],antibody binding signal ranking from the microarray experiment,[1]; [3],080
300 (DSIGDRTRYF) [compound 300],antibody binding signal ranking from the microarray experiment,[1]; [3],095
272 (VVLYSEDVDIETP) [compound 272],antibody binding signal ranking from the microarray experiment,[1]; [3],049
258 (EVDEQAEQQKTHV) [compound 258],antibody binding signal ranking from the microarray experiment,[1]; [3],038
293 (ESYKDRMYSF) [compound 293],antibody binding signal ranking from the microarray experiment,[1]; [3],127
188 (EYWNFRN) [compound 188],antibody binding signal ranking from the microarray experiment,[1]; [4],113
228 (DNEDEVDEQA) [compound 228],antibody binding signal ranking from the microarray experiment,[1]; [3],18
285 (EDVDIETPDT) [compound 285],antibody binding signal ranking from the microarray experiment,[1]; [3],070
191 (LNNSFLD) [compound 191],antibody binding signal ranking from the microarray experiment,[1]; [4],180
232 (DEVDEQAEQQKTH) [compound 232],antibody binding signal ranking from the microarray experiment,[1]; [3],24
186 (NNSFLDPEYW) [compound 186],antibody binding signal ranking from the microarray experiment,[1]; [4],068
309 (FLVQMLANYNIGY) [compound 309],antibody binding signal ranking from the microarray experiment,[1]; [3],184
255 (EVDEQAEQQK) [compound 255],antibody binding signal ranking from the microarray experiment,[1]; [3],030
245 (DDNEDEV) [compound 245],antibody binding signal ranking from the microarray experiment,[1]; [3],078
288 (DRMYSFFRNF) [compound 288],antibody binding signal ranking from the microarray experiment,[1]; [3],072
276 (DVDIETPDTH) [compound 276],antibody binding signal ranking from the microarray experiment,[1]; [3],054
214 (ALEINLEEED) [compound 214],antibody binding signal ranking from the microarray experiment,[1]; [3],07
273 (SEDVDIETPDTHI) [compound 273],antibody binding signal ranking from the microarray experiment,[1]; [3],050
302 (GDRTRYFSMW) [compound 302],antibody binding signal ranking from the microarray experiment,[1]; [3],101
297 (YKDRMYSFFR) [compound 297],antibody binding signal ranking from the microarray experiment,[1]; [3],160
274 (ETPDTHI) [compound 274],antibody binding signal ranking from the microarray experiment,[1]; [3],051
294 (GDSESVPDPQPIGEP; REGION 1..15: note = peptide derived from viral capsid protein) [compound 294],group III,[2]; [5],X
353 (TPWGYFDFNRFHCHF; REGION 1..15: note = peptide derived from viral capsid protein) [compound 353],group III,[2]; [5],X
NAADAAALEHDKAY [SEQ ID NO: 1956],group I,[2]; [6],X
same,group II,[2]; [7],X
same,group III,[2]; [8],X
362 (AHQGCLPPFPADVFM; REGION 1..15: note = peptide derived from viral capsid protein) [compound 362],group III,[2]; [5],X
313 (QGCLPPFPADVFMVP; REGION 1..15: note = peptide derived from viral capsid protein) [compound 313],group III,[2]; [5],X
286 (VLEPFGLVEEGAKTA; REGION 1..15: note = peptide derived from viral capsid protein) [compound 286],group II,[2]; [9],X
same,group III,[2]; [5],X
330 (DSGDNPYLKYNHADA; REGION 1..15: note = peptide derived from viral capsid protein) [compound 330],group III,[2]; [5],X
284 (NVGGQMATNNQSSTT; REGION 1..15: note = peptide derived from viral capsid protein) [compound 284],group II,[2]; [9],X
same,group III,[2]; [5],X
410 (ENVPFHSSYAHSQSL; REGION 1..15: note = peptide derived from viral capsid protein) [compound 410],group III,"[2]; X = peptide in the deduplicated aggregate of the top 50 peptide hits for each donor (top 17.5% of all peptides screened), linear 15-amino-acid AAV peptides on microarrays, human donor IgG, fluorescence",X
316 (EPVKTAPGKKRPVEH; REGION 1..15: note = peptide derived from viral capsid protein) [compound 316],group III,[2]; [5],X
DSQWLGDRVITTST (REGION 1..14: note = peptide derived from viral capsid protein) [SEQ ID NO: 1892],group I,[2]; [6],X
same,group II,[2]; [7],X
same,group III,[2]; [8],X
KGEPVNAADAAALE (REGION 1..14: note = peptide derived from viral capsid protein) [SEQ ID NO: 1952],group I,[2]; [6],×
same,group II,[2]; [7],X
same,group III,[2]; [8],X
288 (VQDSTTTIANNLTST; REGION 1..15: note = peptide derived from viral capsid protein) [compound 288],group II,[2]; [9],X
same,group III,[2]; [5],X
FQERLQEDTSFGGN [SEQ ID NO: 1949],group I,[2]; [6],X
same,group II,[2]; [7],X
same,group III,[2]; [8],X
357 (SLDRLMNPLIDQYLY; REGION 1..15: note = peptide derived from viral capsid protein) [compound 357],group III,[2]; [5],X
315 (PFPADVFMVPQYGYL; REGION 1..15: note = peptide derived from viral capsid protein) [compound 315],group III,[2]; [5],X
347 (AVNLQSSSTDPATGD; REGION 1..15: note = peptide derived from viral capsid protein) [compound 347],group III,[2]; [5],X
293 (SQMLRTGNFEFSYFE; REGION 1..15: note = peptide derived from viral capsid protein) [compound 293],group III,[2]; [5],X
